# Source: patent US10761045B2, “Sensor, sensor system, method of manufacturing sensor, and method of measuring concentration of target substance” (PHC Holdings Corporation, priority 2010, dated 2020)
# Like-named read-outs stand apart in the source and are kept apart here.
# Columns and labels:
# [1] = cited from earlier work; for redox potential: coenzymes and phenanthroline quinone, background values
# [2] = Redox / oxidation potentials stated in the description; type: physicochemical
# [3] = Storage stability of reagent solution (response current of sensors made with stored vs fresh reagent solution); type: physicochemical; conditions: additive in reagent solution C composition (PQSA, FAD-GDH); additive conc. 1.0-5.0 mM
# Description: A sensor having the configuration illustrated in FIG. 1 was manufactured. The detailed procedure will now be described. First, by sputtering palladium, 8 nm-thick conductive layer 3 was deposited on substrate 2 which was 30 mm in length, 7 mm in width and 0.2 mm in thickness and which contained polyethylene terephthalate as its main component. Thereafter, a 0.1 mm-width non-conductive track was formed by laser ablation, to form electrodes 31 to 33. Electrode 31 was designed to function as a working electrode, electrode 32 as a counter electrode, and electrode 33 as a sensing electrode.
# Using a microsyringe, 1.2 μL of each reagent solution was applied to form reagent layer 4 in a shape of 2.2 mm diameter-circular. After formation of reagent layer 4, spacer 5 (0.145 mm thick) having a cut-out with a length of 3.4 mm a width of 1.2 mm and cover 6 were sequentially attached to the substrate having the electrodes formed thereon. In this way a sensor was manufactured that has a capillary having a volume of 0.6 μL. […]
# Response current values of each sensor were measured using a series of glucose solutions of known concentrations.
# By adding as an additive imidazole, histamine, histidine, 2-aminoimidazole, 4,5-bis(hydroxymethyl)imidazole, 1,2,4-triazole, 3-amino-1,2,4-triazole, 4-amino-1,2,4-triazole, 3,5-diamino-1,2,4-triazole, 2-methylimidazole, or 1,2-dimethylimidazole, reagent solutions were prepared that contain the same composition as reagent solution C except the type and concentration of the additive. The concentrations of the additives are as indicated in Tables below and the accompanying drawings.
# Further, sensors were manufactured using the same reagent solutions stored at 25° C. and 5% humidity for 24 hours after preparation. […]
# [4] = Cyclic voltammetry of reagent solutions A and B (PQSA, FAD-GDH, with or without imidazole); type: physicochemical
# Procedure: Reagent solutions A and B having the following compositions were prepared.
# Additive: Imidazole (structural formula is illustrated below) (7.5 mM)
# Electron acceptor: PQSA (7.5 mM)
# Enzyme: FAD dependent-glucose dehydrogenase (FAD-GDH) 3.5 MU/L (liter)
# Buffer solution: 100 mM sodium phosphate buffer solution (pH 7.0)
# Reagent solution B has the same composition as reagent solution A except the absence of imidazole.
# First, by sputtering palladium, 8 nm-thick conductive layer 3 was deposited on substrate 2 which was 30 mm in length, 7 mm in width and 0.2 mm in thickness and which contained polyethylene terephthalate as its main component. Thereafter, a 0.1 mm-width non-conductive track was formed by laser ablation, to form electrodes 31 to 33. Electrode 31 corresponds to a working electrode, and electrode 32 to a counter electrode. Spacer 5 (0.145 mm thick) having a cut-out with a length of 3.4 mm and a width of 1.2 mm and cover 6 were sequentially attached to the substrate having the electrodes formed thereon. In this way a sensor electrode was manufactured that has capillary 51 with a volume of 0.6 μL.
# Cyclic voltammetry was performed for the resultant reagent solution using the aforementioned sensor electrode. As a reference electrode, a silver/silver chloride (saturated potassium chloride) electrode (hereinafter “Ag|AgCl”) was used. […]
# [5] = Stability test (exposure test) of sensor at 30° C., 80% humidity; conditions: additive in reagent layer; additive conc. 1.0-5.0 mM
# Procedure: Sensors were manufactured in the same manner as described in section [1-5] using the reagent solutions prepared above. The sensors manufactured were exposed to an environment of high temperature and humidity (30° C., 80% relative humidity) for 24 hours. Response current values of the pre- and post-exposed sensors were measured for a series of glucose solutions of known concentrations.
# Sensors were manufactured using fresh reagent solutions having the same compositions as described above. The sensors were subjected to an exposure experiment where they were allowed to stand for 24 hours at 30° C. and 80% humidity. Response current values of non-exposed sensors (i.e., sensors stored under the ambient condition (25° C., 5% humidity) for 24 hours) and the exposed sensors were measured for a series of glucose solutions of known concentrations.
# [6] = Solubility in water of mediators; type: physicochemical; conditions: for solubility: water
# Description: Solubilities in water of Compounds A, B, H′, I, I′ and J and disodium 9,10-phenanthrenequinone 2,7-disulfonate are given in Table 1.
# [7] = Cyclic voltammetry of mediators, redox potential vs Ag|AgCl; type: physicochemical; conditions: reference Ag|AgCl; for Eox (V): potential at peak oxidation current; for Ered (V): potential at peak reduction current; for EO′ (V) [(Ered + Eox)/2]: redox potential, average of Ered and Eox
# Procedure: Redox potential (EO′) was calculated in the following procedure. Specifically, cyclic voltammetry using Ag|AgCl as the reference electrode was performed under the same conditions as those in Examples to be described later. Redox potential (EO′) was found as an average of the potential value at the peak oxidation current (Eox) and the potential value at the peak reduction current (Ered), i.e., [(Ered+Eox)/2].
# Cyclic voltammetry was performed for the resultant reagent solution using the aforementioned sensor electrode. As a reference electrode, a silver/silver chloride (saturated potassium chloride) electrode (hereinafter “Ag|AgCl”) was used. The reference electrode was led to vent hole 61 of the sensor electrode via a salt bridge. A potentiostat was used for measurement. The electrodes and the potentiostat used were those commonly used in electrochemistry. These instruments can be purchased from BAS Inc., for example.
# In cyclic voltammetry, a potential applied to the working electrode was swept linearly with respect to time. The sweeping rate was set to 0.1 V/second. First, a first potential was applied to the working electrode, and the electrode potential was swept toward negative potentials from the first potential to a second potential. The electrode potential was then swept back from the second potential to the first potential toward positive potentials. The first and second potentials were 0.2 V and […], respectively, […]
solubility ([6]; read-out: Solubility in water),Eox (V) [7],Ered (V) [7],EO′ (V) [(Ered + Eox)/2] [7],Molecule,also measured
,,,,"Cc1cc2nc3c(=O)[nH]c(=O)nc-3n(C[C@H](O)[C@H](O)[C@H](O)COP(=O)(O)OP(=O)(O)OC[C@H]3O[C@@H](n4cnc5c(N)ncnc54)[C@H](O)[C@@H]3O)c2cc1C [FAD, flavin adenine dinucleotide]",redox potential [1]: approximately −300 mV
,,,,"O=C1C(=O)c2ccccc2-c2ccccc21 [9,10-phenanthrenequinone]",redox potential of exemplary electron acceptors [2]: −180 mV
,,,,Imidazole,"Reagent solution stability % change in response current value between before and after 24 hours storage at 25° C. [3]: −1%; shift of the peak oxidation potential of PQSA after storage of reagent solution ([4]; 21 hours at 25° C. and 5% relative humidity, FIG. 4): positive shift of the peak oxidation potential was limited; shift of the peak potential of PQSA on addition of additive ([4]; imidazole 7.5 mM, PQSA 7.5 mM, FAD-GDH, pH 7.0, FIG. 4 vs FIG. 5): negative shift; Sensor stability % change in response current value between before and after 24 hours exposure at 30° C. and 80% humidity [5]: −50%"
1 mM,−0.10 V,−0.13 V,−0.12 V,O=C1C(=O)c2cc([N+](=O)[O-])ccc2-c2ccccc21 [Compound A],
20 mM,−0.14 V,−0.22 V,−0.18 V,O=C(NCCS(=O)(=O)[O-])c1ccc(-c2ccc3c(c2)C(=O)C(=O)c2ccccc2-3)cc1.[Na+] [Compound I′],
,,,,O=C1O[C@H]([C@@H](O)CO)C(O)=C1O [ascorbic acid],"oxidation potential ([1]; interfering substance, background value): approximately −140 mV"
1 mM,−0.19 V,−0.23 V,−0.21 V,Nc1ccc2c(c1)C(=O)C(=O)c1ccccc1-2 [Compound B],
,,,,"O=C1C(=O)c2cc(S(=O)(=O)O)ccc2-c2ccccc21 [9,10-phenanthrenequinone-2-sulfonic acid]",redox potential of exemplary electron acceptors [2]: −140 mV
50 mM,−0.15 V,−0.23 V,−0.19 V,O=C([O-])c1cc(C(=O)[O-])cc(-c2ccc3c(c2)C(=O)C(=O)c2ccccc2-3)c1.[Na+].[Na+] [Compound J],
20 mM,−0.14 V,−0.21 V,−0.18 V,O=C1C(=O)c2cc(-c3ccc(S(=O)(=O)[O-])cc3)ccc2-c2ccccc21.[Na+] [Compound H′],
,,,,"O=C1C=C(S(=O)(=O)O)c2ccccc2C1=O [1,2-naphthoquinone-4-sulfonic acid]",redox potential of exemplary electron acceptors [2]: −16 mV
,,,,O=C1C(=O)c2cccnc2-c2ncccc21 [phenanthroline quinone],redox potential [1]: approximately 0 mV
,,,,"O=C(O)c1cc(C(=O)O)c2c(n1)C(=O)C(=O)c1cc(C(=O)O)[nH]c1-2 [PQQ, pyrroloquinoline quinone]",redox potential [1]: approximately −200 mV
5 mM,−0.14 V,−0.22 V,−0.18 V,O=C([O-])c1ccc(-c2ccc3c(c2)C(=O)C(=O)c2ccccc2-3)cc1.[Na+] [Compound I],

Molecule,solubility ([6]; read-out: Solubility in water),Eox (V) [7],Ered (V) [7],EO′ (V) [(Ered + Eox)/2] [7],also measured
"O=C1C(=O)c2cc(S(=O)(=O)[O-])ccc2-c2ccccc21.[Na+] [Sodium 9,10-phenanthrenequinone-2-sulfonate]",,−0.12 V,−0.18 V,−0.15 V,solubility [6]: 80 mM
"O=C1C(=O)c2cc(S(=O)(=O)[O-])ccc2-c2ccc(S(=O)(=O)[O-])cc21.[Na+].[Na+] [Disodium 9,10-phenanthrenequinone-2,7-disulfonate]",,−0.06 V,−0.18 V,−0.12 V,Solubility in water [6]: ≥200 mM
